Measurements: paper PMC8032764 (Scientific Reports, 2021)
Read-outs that look alike come from different tables or passages of the source.

How the values were obtained:
human GABAA α2β3γ2 = test system: T1, human GABAA α2β3γ2; experiment: Two-electrode voltage clamp in Xenopus oocytes, current induced by EC10 of GABA; assay type: cell-based; conditions: 300 nM β-CCM; not shown
T1 construct: expressed in transfected cells; host or cells: Xenopus laevis oocytes, cRNA injection
Method: (§1) Freshly prepared oocytes of maturation stage VI were bought from Ecocyte Bioscience (Castrop-Rauxel, Germany) and, after overnight delivery, plated into 96-well plates (Greiner no. 651101) for microinjection on a ROBOOCYTE R16 system (Multichannel Systems MCS GmbH, Reutlingen, Germany). Each oocyte was injected with roughly 50 nL of RNA solution. The solution for expressing receptors composed of the human α1, β2 and γ2 subunits contained 3 pg/nL of α1 and β2 RNA and 15 pg/nL of γ2 RNA. The solution for expressing human α2β3γ2 receptors contained 2.5 pg/nL of α2 and β3 RNA, 5 pg/nL of γ2 RNA and 10 pg/nL of GABARAP RNA. The solution for expressing human α3β3γ2 receptors contained 1.3 pg/nL of α3 and β3 RNA and 6.5 pg/nL of γ2 RNA. The solution for expressing human α5β3γ2 receptors contained 1.3 pg/nL of α5 and β3 RNA and 13 pg/nL of γ2 RNA. GABARAP was added to the α2β3γ2 subunit mixture since the expression of γ2 would be low otherwise, as indicated by a weak effect of β-CCM[60]. After the microinjection the oocytes were kept at 20 °C temperature until the electrophysiological experiment. Experiments were done 3 to 5 days later on the ROBOOCYTE instrument which employs the two-microelectrode voltage-clamp technique for membrane voltage control and current measurement. […] During current recording and compound testing the cell membrane was constantly clamped to − 80 mV. Current signals were recorded and stored on a PC-type computer using the ROBOOCYTE software.
During the microinjection and up to the electrophysiological experiment the oocytes were kept in a solution containing 88 mM NaCl, 1 mM KCl, 2.5 mM NaHCO3, 10 mM HEPES (AppliChem GmbH, Darmstadt, Germany), 0.82 MgSO4, 0.33 mM Ca(NO3)2, 0.33 mM CaCl2, 100 U/mL penicillin (GIBCO, ThermoFisher Scientific) and 100 µg/mL streptomycine (GIBCO, ThermoFisher Scientific). The pH was adjusted to 7.5. During the experiment the voltage-clamped oocyte was constantly superfused by a solution containing 90 mM NaCl, 1 mM KCl, 5 mM HEPES (AppliChem), 1 mM MgCl2 and 1 mM CaCl2 (pH 7.4). GABA and test compounds were added to this solution. GABA concentrations were chosen according to previously determined concentration–response relations for the different human GABAA receptor subunit combinations. Concentrations evoking approximately 10% of a maximal response were selected, i.e., 8 µM for α1β2γ2, 6 µM for α2β3γ2, 10 µM for α3β3γ2 and 5 µM for α5β3γ2. Solutions containing GABA or test compounds were freshly prepared at least every second day. […] Compounds were further diluted in DMSO and finally in extracellular saline to reach a DMSO concentration of 0.1%. The same amount of DMSO was added to the control solutions without test compounds. […]

human GABAA α5β3γ2 = human GABAA α5β3γ2 (Homo sapiens, UniProt P18507+P31644); experiment: as above; assay type: cell-based; design: expressed in transfected cells; host or cells: Xenopus laevis oocytes, cRNA injection
Method: as §1, with “GABARAP was added to the α2β3γ2 subunit mixture since the expression of γ2 would be low otherwise, as indicated by a weak effect of β-CCM[60].” left out
During the microinjection and up to the electrophysiological experiment the oocytes were kept in a solution containing 88 mM NaCl, 1 mM KCl, 2.5 mM NaHCO3, 10 mM HEPES (AppliChem GmbH, Darmstadt, Germany), 0.82 MgSO4, 0.33 mM Ca(NO3)2, 0.33 mM CaCl2, 100 U/mL penicillin (GIBCO, ThermoFisher Scientific) and 100 µg/mL streptomycine (GIBCO, ThermoFisher Scientific). The pH was adjusted to 7.5. During the experiment the voltage-clamped oocyte was constantly superfused by a solution containing 90 mM NaCl, 1 mM KCl, 5 mM HEPES (AppliChem), 1 mM MgCl2 and 1 mM CaCl2 (pH 7.4). GABA and test compounds were added to this solution. GABA concentrations were chosen according to previously determined concentration–response relations for the different human GABAA receptor subunit combinations. Concentrations evoking approximately 10% of a maximal response were selected, i.e., 8 µM for α1β2γ2, 6 µM for α2β3γ2, 10 µM for α3β3γ2 and 5 µM for α5β3γ2. Solutions containing GABA or test compounds were freshly prepared at least every second day. […] Compounds were further diluted in DMSO and finally in extracellular saline to reach a DMSO concentration of 0.1%. The same amount of DMSO was added to the control solutions without test compounds.
During the experiment the solutions were fed into the well containing the voltage-clamped oocyte via Teflon tubings connected by electromagnetic valves which allowed rapid switching between different solutions (controlled by the ROBOCYTE software). Approximately 1–2 min after impaling an oocyte and switching to voltage-clamp mode GABA was applied for 90 s to record a control response. Thereafter the oocyte was washed with saline for 160 s followed by another 90 s GABA application. Then 30 s after the onset of the second GABA application the system switched to a solution containing GABA plus the test compound. Each oocyte was used for testing one concentration of a single test compound (for α5β3γ2: 1 nM: n = 8, 10 nM: n = 8, 100 nM: n = 7, 1000 nM: n = 7).
In this case each GABA application lasted 110 s and the rest period between the two GABA applications was 190 s long.
On each 96-well plate 3–6 oocytes were used for testing a known NAM at the BZD binding site, β-CCM (FG7106), as a positive control. […] Maximally effective concentrations of β-CCM were used for each subunit combination, i.e., 100 nM β-CCM for α1β2γ2, 300 nM for α2β3γ2 or α3β3γ2 and 1 µM for α5β3γ2.

male F-344 rats = experiment: Social approach avoidance test; conditions: positive control, 3 mg/kg p.o., 30 min prior to testing
Method: Experiments on social approach avoidance were performed as described previously by[41] and[14]. A tracking system (Ethovision, Noldus, The Netherlands) was used to analyse each rat’s pathway.

GABAA α1β3γ2 = conditions: Table S4a, cited from earlier work
GABAA α2β3γ2 = conditions: Table S4a, cited from earlier work
GABAA α3β3γ2 = conditions: Table S4a, cited from earlier work
GABAA α5β3γ2 = conditions: cited from earlier work
Wistar rats = experiment: Pentylenetetrazole (PTZ) test; assay type: in vivo, rat; conditions: positive control, 10 mg/kg i.p. 30 min prior to PTZ, p < 0.05
Method: PTZ was prepared in 0.9% saline and was administered s.c. in a volume of 1 mL/kg. The positive control FG7142, a non-selective GABAA receptor NAM, was prepared in 0.3% Tween 80 v/v saline and was administered i.p. in a volume of 1 mL/kg. […] During this period the number of rats showing tonic convulsions was noted.
FG7142 was administered at 10 mg/kg 30 min prior to PTZ. The percent of rats in each dose group showing tonic convulsions was compared to the control group by the Pearson Chi-Square test.

male Lister Hooded rats = experiment: Diazepam-induced spatial learning impairment in the Morris water maze; assay type: in vivo, rat; conditions: diazepam 6 mg/kg i.p.
Method: The current study used a modified version of the standard acquisition protocol, in which pre-trained rats had to learn to locate a new platform position during six trials on the test day, as described previously. Subjects were semi-randomly divided into treatment groups based on their performance on the last training day. A computer tracking system (HVS Image Ltd, UK) was used to analyse each rat’s swim path on-line.
Latency, pathlength and swim speed (Supplementary Fig. S2) were analysed with a one-factor ANOVA. For the probe trial, to determine whether each treatment group had learned the spatial position of the platform, within-subjects ANOVA was used to compare percent time spent in the platform quadrant with the left, right and opposite quadrants. All significant cases were followed by a post hoc Newman–Keuls test. In addition, a comparison between vehicle treated and diazepam-treated rats on the percent time spent in the platform quadrant was analysed using an unpaired t-test.

human GABAA α5β3γ2, sequence (P31644 32-462): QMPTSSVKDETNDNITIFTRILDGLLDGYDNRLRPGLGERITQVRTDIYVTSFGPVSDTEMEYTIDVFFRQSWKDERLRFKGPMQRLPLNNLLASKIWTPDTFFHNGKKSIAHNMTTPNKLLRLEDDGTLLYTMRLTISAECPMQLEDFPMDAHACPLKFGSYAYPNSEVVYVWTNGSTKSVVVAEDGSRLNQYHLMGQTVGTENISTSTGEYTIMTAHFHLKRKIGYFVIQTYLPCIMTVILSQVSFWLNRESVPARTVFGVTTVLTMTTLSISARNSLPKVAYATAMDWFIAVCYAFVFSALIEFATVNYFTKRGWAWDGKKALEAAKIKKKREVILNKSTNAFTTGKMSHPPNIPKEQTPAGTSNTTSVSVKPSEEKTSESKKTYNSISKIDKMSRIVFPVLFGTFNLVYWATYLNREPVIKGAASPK
human GABAA α5β3γ2, sequence (P28472 26-473 partner): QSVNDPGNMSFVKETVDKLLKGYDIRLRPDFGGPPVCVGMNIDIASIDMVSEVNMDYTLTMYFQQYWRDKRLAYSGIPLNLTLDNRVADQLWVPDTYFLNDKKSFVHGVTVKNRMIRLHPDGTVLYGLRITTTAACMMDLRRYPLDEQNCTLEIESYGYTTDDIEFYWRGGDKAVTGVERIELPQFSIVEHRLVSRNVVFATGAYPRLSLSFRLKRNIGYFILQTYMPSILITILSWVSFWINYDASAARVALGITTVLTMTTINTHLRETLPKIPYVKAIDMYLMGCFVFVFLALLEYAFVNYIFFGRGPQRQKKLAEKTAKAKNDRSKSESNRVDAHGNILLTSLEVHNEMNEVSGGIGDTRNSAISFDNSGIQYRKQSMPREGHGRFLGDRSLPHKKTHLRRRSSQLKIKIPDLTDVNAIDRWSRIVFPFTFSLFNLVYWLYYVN
human GABAA α5β3γ2, sequence (P18507 40-475): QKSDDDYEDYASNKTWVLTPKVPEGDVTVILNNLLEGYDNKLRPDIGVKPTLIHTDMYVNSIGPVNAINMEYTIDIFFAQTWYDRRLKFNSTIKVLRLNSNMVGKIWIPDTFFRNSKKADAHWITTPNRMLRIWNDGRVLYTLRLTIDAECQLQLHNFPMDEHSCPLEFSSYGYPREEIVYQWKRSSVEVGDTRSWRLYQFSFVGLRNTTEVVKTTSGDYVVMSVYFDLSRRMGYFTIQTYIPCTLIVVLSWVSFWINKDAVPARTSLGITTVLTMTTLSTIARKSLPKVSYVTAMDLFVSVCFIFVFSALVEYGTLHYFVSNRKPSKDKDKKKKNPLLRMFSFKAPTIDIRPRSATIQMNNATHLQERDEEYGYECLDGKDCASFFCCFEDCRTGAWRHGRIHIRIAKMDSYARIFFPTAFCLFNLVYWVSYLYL

Which “inhibition of GABA response” value (human GABAA α2β3γ2) does the source give for `COC(=O)c1cc2c(cn1)[nH]c1ccccc12` [β-CCM, methyl beta-carboline-3-carboxylate, reference compound] here?
The value was 42%.

And the “reduction of the GABA-evoked current” value (human GABAA α5β3γ2; maximally effective concentration, 1 µM β-CCM, data not shown)?
Its value is 52%.

With `CN1Cc2c(C(=O)OC(C)(C)C)ncn2-c2ccsc2C1=O` [Ro 19-4603, reference compound] as the compound, how does the “time in the social compartment” value (male F-344 rats; p < 0.001) read?
The value was “significantly decreased the time in the social compartment”.

And the “time in the hidden area” value (male F-344 rats; p < 0.05)?
Its value is “increased the time in the hidden area”.

For `CCOC(=O)c1ncn2c1[C@@H]1CCCN1C(=O)c1cc(OC)ccc1-2` [L-655,708], which Ki (GABAA α1β3γ2; ref Atack et al., 2006) is on record?
The Ki was 70 nM.

What about the Ki (GABAA α2β3γ2; ref Atack et al., 2006) of the same compound?
Its Ki is 48 nM.

What about the Ki (GABAA α3β3γ2; ref Atack et al., 2006) of the same compound?
Its Ki is 31 nM.

What about the Ki (GABAA α5β3γ2; Table S4a, ref Atack et al., 2006, read-out: Ki α5β3γ2) of the same compound?
Its Ki is 1 nM.

What about the Ki (GABAA α5β3γ2; discussion, no reference given, read-out: Ki at the GABAA-α5 receptor subtype) of the same compound?
The Ki was about 1 nM.

With `CNC(=O)c1cc2c(cn1)[nH]c1ccccc12` [FG7142, N-Methyl-9H-pyrido[5,4-b]indole-3-carboxamide, reference compound] as the compound, how does the “number of rats showing tonic convulsions” value (Wistar rats) read?
The value was “increased the number of rats showing tonic convulsions”.

Which “enhancement of the GABA-induced current” value (human GABAA α5β3γ2; 30 and 1000 nM, concentration-dependent) does the source give for `CCOC(=O)c1ncn2c1CN(C)C(=O)c1cc(F)ccc1-2` [Flumazenil, reference compound] here?
Its value is “up to 28%”.

What does the source list for `COCc1ncn2c1CN(C)C(=O)c1cc(Cl)ccc1-2` [PWZ-029]?
Ki (GABAA α1β3γ2; ref Savić et al., 2008): 920 nM; Ki (GABAA α2β3γ2; ref Savić et al., 2008): > 300 nM; Ki (GABAA α3β3γ2; ref Savić et al., 2008): > 300 nM; Ki (GABAA α5β3γ2; Table S4a, ref Savić et al., 2008, read-out: Ki α5β3γ2): 30 nM

With `CN1C(=O)CN=C(c2ccccc2)c2cc(Cl)ccc21` [Diazepam, reference compound] as the compound, how does the “latency and pathlength to find the platform across six trials” value (male Lister Hooded rats) read?
The value was “significantly increased the latency and pathlength”.

And the swim speed (male Lister Hooded rats)?
Its swim speed is “small but significant increase in swim speed”.

What about the “probe trial, learning of the new platform position” value (male Lister Hooded rats; 30 min before test) of the same compound?
Its value is “significantly disrupted learning of the new platform position”.
